For orientation: MIC means the lowest concentration found to suppress growth.

From patent US20150231199A1, “PEPTIDES AND THEIR USES” (priority 2012, published 2015) come the findings set out here.

≈ marks a conversion by molar mass, not a printed value. Read-outs that look alike come from different tables or passages of the source. Positions of bridges follow the written chain, without caps; N, C: chain ends. Residues, ends and D or L forms follow the SMILES beside them. Chains are numbered I, II in the order given. *: point of attachment. Myristoyl = CCCCCCCCCCCCCC(=O)*; Lauroyl = CCCCCCCCCCCC(=O)*; Decanoyl = CCCCCCCCCC(=O)*; Octanoyl = CCCCCCCC(=O)*; Hexanoyl = CCCCCC(=O)*; Butyryl = CCCC(=O)* Some results are limits rather than exact numbers.

The test system of series [1] is Methicillin-resistant Staphylococcus aureus (MRSA). Type of series: cell-based. On the procedure:
(§1) V2-dimer and all lipopeptides (FIG. 1A) used in this study were purchased from Mimotopes. All peptides were prepared by dissolving in sterile water to make 1000 μg/mL stock solutions. Minimum Inhibitory Concentration (MIC) determination was carried out in Mueller Hinton Broth (MHB) using the broth macro-dilution method as described by the Clinical and Laboratory Standards Institute (CLSI). Then, cation-adjusted MHB (CA-MHB) was used to prepare serial two fold dilutions of the compounds in test tubes. The concentration of the inoculums suspension was also adjusted to approximately 5×10^5 Colony Forming Units (CFU)/mL using MHB. Bacteria were incubated with the compounds for 24 hours at 35° C. prior to reading. In this study, Gram-positive strains used were Staphylococcus aureus DM4001 and Methicillin-resistant Staphylococcus aureus (MRSA) DM9808. Gram-negative strains used were Klebsiella pneumoniae DM4299, Pseudomonas aeruginosa ATCC23155 and Escherichia coli ATCC27922.
(§2) Methods used are as described in Example 1 above.

Another series concerns Pseudomonas aeruginosa. Type of series: cell-based. How it is done:
as §1, §2

The subject of a further series is Staphylococcus aureus. Type of series: cell-based. On the procedure:
as §1, §2

Series [2] relates to Klebsiella pneumoniae DM4299. Type of series: cell-based. How it is done: as §1
In series [3] the test system is Escherichia coli ATCC27922. In kind it is cell-based. On the procedure:
as §1

Series [4] relates to red blood cells (RBCs) of New Zealand white rabbits. The series is described as follows: in vitro. In kind it is cell-based, rabbit. On the procedure: Fresh red blood cells (RBCs) of New Zealand white rabbits were used for this experiment. The RBCs obtained were centrifuged at 3000 rpm for 10 min. Supernatant was removed and washed twice with sterile PBS Buffer (20 mM, 100 mM NaCl, pH 7). The RBCs were further diluted to 8% stock solution in PBS. Peptides were dissolved in PBS with desired stock concentrations. When compounds were mixed with RBCs, desired concentration of 4% RBCs was obtained. For C14V2D and C16V2D, they were dissolved in Dimethylformamide ([…]; DMF) with desired stock concentrations. When compounds were mixed with RBCs, desired concentration of 4% RBCs and 0.5% DMF was obtained. DMF concentration of <1% was used as it had negligible hemolytic activity on RBCs. The mixtures were added to 1.5 mL centrifuge tubes and incubated at 37° C. for 1 h. After incubation, the blood was centrifuged at 3000 rpm for 3 min at 4° C. 100 μL of the supernatant was transferred into transparent 96-well plate. The absorbance was measured at 576 nm using a microplate reader (TECAN Infinite 200M Pro). 2% Triton X-100 was used as positive control. PBS was used as negative controls. The amount of hemoglobin released was calculated using the following equation: […]

On to `CCCC(=O)N[C@@H](CCCNC(=N)N)C(=O)NCC(=O)N[C@@H](CCCNC(=N)N)C(=O)N[C@@H](CCCCN)C(=O)NCC(=O)NCC(=O)N[C@@H](CCCNC(=N)N)C(=O)N[C@@H](CCCNC(=N)N)C(=O)NCCCC[C@H](NC(=O)[C@H](CCCNC(=N)N)NC(=O)[C@H](CCCNC(=N)N)NC(=O)CNC(=O)CNC(=O)[C@H](CCCCN)NC(=O)[C@H](CCCNC(=N)N)NC(=O)CNC(=O)[C@H](CCCNC(=N)N)NC(=O)CCC)C(=O)N[C@@H](CCCCN)C(=O)O` [Peptide C4-G2D, (C3H7—CO—NH—RGRKGGRR)2KK] (I: Butyryl-RGRKGGRRKK-OH / II: Butyryl-RGRKGGRR; amide I:9-II:C; N-terminus and C-terminus assumed), for which the minimal inhibitory concentration (MIC) amounted to 5.52 µM (≈ 12.5 µg/mL) in series [1], 2.76 µM (≈ 6.25 µg/mL) against Pseudomonas aeruginosa, 5.39 µM (≈ 12.2 µg/mL) in the series on Staphylococcus aureus and 5.52 µM (≈ 12.5 µg/mL) in series [2].
Take `CCCCCCCCCC(=O)N[C@@H](CCCNC(=N)N)C(=O)NCC(=O)N[C@@H](CCCNC(=N)N)C(=O)N[C@@H](CCCCN)C(=O)NCC(=O)NCC(=O)N[C@@H](CCCNC(=N)N)C(=O)N[C@@H](CCCNC(=N)N)C(=O)NCCCC[C@H](NC(=O)[C@H](CCCNC(=N)N)NC(=O)[C@H](CCCNC(=N)N)NC(=O)CNC(=O)CNC(=O)[C@H](CCCCN)NC(=O)[C@H](CCCNC(=N)N)NC(=O)CNC(=O)[C@H](CCCNC(=N)N)NC(=O)CCCCCCCCC)C(=O)N[C@@H](CCCCN)C(=O)O` [Peptide C10-G2D, (C9H19—CO—NH—RGRKGGRR)2KK] (I: Decanoyl-RGRKGGRRKK-OH / II: Decanoyl-RGRKGGRR; amide I:9-II:C; N-terminus and C-terminus assumed): the minimum inhibitory concentration (MIC) in series [1] was 2.57 µM (≈ 6.25 µg/mL); against Pseudomonas aeruginosa, 2.57 µM (≈ 6.25 µg/mL); against Staphylococcus aureus it was 2.51 µM (≈ 6.1 µg/mL); in series [2], 2.57 µM (≈ 6.25 µg/mL).
With `CCCC(=O)N[C@@H](CCCNC(=N)N)C(=O)NCC(=O)N[C@@H](CCCNC(=N)N)C(=O)N[C@@H](CCCCN)C(=O)N[C@H](C(=O)N[C@H](C(=O)N[C@@H](CCCNC(=N)N)C(=O)N[C@@H](CCCNC(=N)N)C(=O)NCCCC[C@H](NC(=O)[C@H](CCCNC(=N)N)NC(=O)[C@H](CCCNC(=N)N)NC(=O)[C@@H](NC(=O)[C@@H](NC(=O)[C@H](CCCCN)NC(=O)[C@H](CCCNC(=N)N)NC(=O)CNC(=O)[C@H](CCCNC(=N)N)NC(=O)CCC)C(C)C)C(C)C)C(=O)N[C@@H](CCCCN)C(=O)O)C(C)C)C(C)C` [Peptide C4-V2D, (C3H7—CO—NH—RGRKVVRR)2KK] (I: Butyryl-RGRKVVRRKK-OH / II: Butyryl-RGRKVVRR; amide I:9-II:C), the minimal inhibitory concentration (MIC) in series [1] is 2.57 µM (≈ 6.25 µg/mL); against Pseudomonas aeruginosa it was 10.28 µM (≈ 25 µg/mL); in the series with Staphylococcus aureus, 2.57 µM (≈ 6.25 µg/mL); in series [3], 2.57 µM (≈ 6.25 µg/mL); in series [2] it was 5.14 µM (≈ 12.5 µg/mL). The HC10 in series [4] (red cells of rabbit, 1 h) is >2000 µg/mL.
Take `CC(=O)N[C@@H](CCCNC(=N)N)C(=O)NCC(=O)N[C@@H](CCCNC(=N)N)C(=O)N[C@@H](CCCCN)C(=O)N[C@H](C(=O)N[C@H](C(=O)N[C@@H](CCCNC(=N)N)C(=O)N[C@@H](CCCNC(=N)N)C(=O)NCCCC[C@H](NC(=O)[C@H](CCCNC(=N)N)NC(=O)[C@H](CCCNC(=N)N)NC(=O)[C@@H](NC(=O)[C@@H](NC(=O)[C@H](CCCCN)NC(=O)[C@H](CCCNC(=N)N)NC(=O)CNC(=O)[C@H](CCCNC(=N)N)NC(C)=O)C(C)C)C(C)C)C(=O)N[C@@H](CCCCN)C(=O)O)C(C)C)C(C)C` [Peptide C2-V2D, (CH3—CO—NH—RGRKVVRR)2KK] (I: Ac-RGRKVVRRKK-OH / II: Ac-RGRKVVRR; amide I:9-II:C): the MIC worked out at 2.63 µM (≈ 6.25 µg/mL) in series [1]; 5.26 µM (≈ 12.5 µg/mL) with Pseudomonas aeruginosa; 5.26 µM (≈ 12.5 µg/mL) against Staphylococcus aureus; 2.63 µM (≈ 6.25 µg/mL) in series [3]; 5.26 µM (≈ 12.5 µg/mL) in series [2]. The HC10 in series [4] (red cells of rabbit, 1 h) is >2000 µg/mL.
Consider `CC(=O)N[C@@H](CCCNC(=N)N)C(=O)NCC(=O)N[C@@H](CCCNC(=N)N)C(=O)N[C@@H](CCCCN)C(=O)NCC(=O)NCC(=O)N[C@@H](CCCNC(=N)N)C(=O)N[C@@H](CCCNC(=N)N)C(=O)NCCCC[C@H](NC(=O)[C@H](CCCNC(=N)N)NC(=O)[C@H](CCCNC(=N)N)NC(=O)CNC(=O)CNC(=O)[C@H](CCCCN)NC(=O)[C@H](CCCNC(=N)N)NC(=O)CNC(=O)[C@H](CCCNC(=N)N)NC(C)=O)C(=O)N[C@@H](CCCCN)C(=O)O` [Peptide C2-G2D, (CH3—CO—NH—RGRKGGRR)2KK] (I: Ac-RGRKGGRRKK-OH / II: Ac-RGRKGGRR; amide I:9-II:C; N-terminus and C-terminus assumed), for which the MIC came out at 5.66 µM (≈ 12.5 µg/mL) in series [1], 2.83 µM (≈ 6.24 µg/mL) with Pseudomonas aeruginosa, 5.52 µM (≈ 12.2 µg/mL) in the series with Staphylococcus aureus and 5.66 µM (≈ 12.5 µg/mL) in series [2].
`CCCCCCCCCCCCCC(=O)N[C@@H](CCCNC(=N)N)C(=O)NCC(=O)N[C@@H](CCCNC(=N)N)C(=O)N[C@@H](CCCCN)C(=O)N[C@H](C(=O)N[C@H](C(=O)N[C@@H](CCCNC(=N)N)C(=O)N[C@@H](CCCNC(=N)N)C(=O)NCCCC[C@H](NC(=O)[C@H](CCCNC(=N)N)NC(=O)[C@H](CCCNC(=N)N)NC(=O)[C@@H](NC(=O)[C@@H](NC(=O)[C@H](CCCCN)NC(=O)[C@H](CCCNC(=N)N)NC(=O)CNC(=O)[C@H](CCCNC(=N)N)NC(=O)CCCCCCCCCCCCC)C(C)C)C(C)C)C(=O)N[C@@H](CCCCN)C(=O)O)C(C)C)C(C)C` [Peptide C14-V2D, (C13H23—CO—NH—RGRKVVRR)2KK] (I: Myristoyl-RGRKVVRRKK-OH / II: Myristoyl-RGRKVVRR; amide I:9-II:C; N-terminus and C-terminus assumed): the MIC came to 2.30 µM (≈ 6.24 µg/mL) in series [1]; 2.30 µM (≈ 6.24 µg/mL) with Pseudomonas aeruginosa; 2.30 µM (≈ 6.24 µg/mL) in the series on Staphylococcus aureus; 1.15 µM (≈ 3.12 µg/mL) in series [3]; 9.22 µM (≈ 25 µg/mL) in series [2]. Also, the HC10 entry in series [4] is recorded as “^b251.82 ± 5.2 ug/mL”.
Turning to `CCCCCCCCCCCC(=O)N[C@@H](CCCNC(=N)N)C(=O)NCC(=O)N[C@@H](CCCNC(=N)N)C(=O)N[C@@H](CCCCN)C(=O)NCC(=O)NCC(=O)N[C@@H](CCCNC(=N)N)C(=O)N[C@@H](CCCNC(=N)N)C(=O)NCCCC[C@H](NC(=O)[C@H](CCCNC(=N)N)NC(=O)[C@H](CCCNC(=N)N)NC(=O)CNC(=O)CNC(=O)[C@H](CCCCN)NC(=O)[C@H](CCCNC(=N)N)NC(=O)CNC(=O)[C@H](CCCNC(=N)N)NC(=O)CCCCCCCCCCC)C(=O)N[C@@H](CCCCN)C(=O)O` [Peptide C12-G2D, (C11H23—CO—NH—RGRKGGRR)2KK] (I: Lauroyl-RGRKGGRRKK-OH / II: Lauroyl-RGRKGGRR; amide I:9-II:C; N-terminus and C-terminus assumed), the MIC is 40.21 µM (≈ 100 µg/mL) in series [1], >40.21 µM with Pseudomonas aeruginosa, >40.21 µM against Staphylococcus aureus and 40.21 µM (≈ 100 µg/mL) in series [2].
As to `CCCCCCCC(=O)N[C@@H](CCCNC(=N)N)C(=O)NCC(=O)N[C@@H](CCCNC(=N)N)C(=O)N[C@@H](CCCCN)C(=O)NCC(=O)NCC(=O)N[C@@H](CCCNC(=N)N)C(=O)N[C@@H](CCCNC(=N)N)C(=O)NCCCC[C@H](NC(=O)[C@H](CCCNC(=N)N)NC(=O)[C@H](CCCNC(=N)N)NC(=O)CNC(=O)CNC(=O)[C@H](CCCCN)NC(=O)[C@H](CCCNC(=N)N)NC(=O)CNC(=O)[C@H](CCCNC(=N)N)NC(=O)CCCCCCC)C(=O)N[C@@H](CCCCN)C(=O)O` [Peptide C8-G2D, (C7H15—CO—NH—RGRKGGRR)2KK] (I: Octanoyl-RGRKGGRRKK-OH / II: Octanoyl-RGRKGGRR; amide I:9-II:C; N-terminus and C-terminus assumed), the MIC in series [1] turned out to be 2.63 µM (≈ 6.25 µg/mL); against Pseudomonas aeruginosa, 2.63 µM (≈ 6.25 µg/mL); against Staphylococcus aureus it was 2.57 µM (≈ 6.1 µg/mL); in series [2], 2.63 µM (≈ 6.25 µg/mL).
With `CCCCCC(=O)N[C@@H](CCCNC(=N)N)C(=O)NCC(=O)N[C@@H](CCCNC(=N)N)C(=O)N[C@@H](CCCCN)C(=O)NCC(=O)NCC(=O)N[C@@H](CCCNC(=N)N)C(=O)N[C@@H](CCCNC(=N)N)C(=O)NCCCC[C@H](NC(=O)[C@H](CCCNC(=N)N)NC(=O)[C@H](CCCNC(=N)N)NC(=O)CNC(=O)CNC(=O)[C@H](CCCCN)NC(=O)[C@H](CCCNC(=N)N)NC(=O)CNC(=O)[C@H](CCCNC(=N)N)NC(=O)CCCCC)C(=O)N[C@@H](CCCCN)C(=O)O` [Peptide C6-G2D, (C5H11—CO—NH—RGRKGGRR)2KK] (I: Hexanoyl-RGRKGGRRKK-OH / II: Hexanoyl-RGRKGGRR; amide I:9-II:C; N-terminus and C-terminus assumed), the MIC is 2.70 µM (≈ 6.26 µg/mL) in series [1], 5.39 µM (≈ 12.5 µg/mL) in the series with Pseudomonas aeruginosa, 5.26 µM (≈ 12.2 µg/mL) against Staphylococcus aureus and 2.70 µM (≈ 6.26 µg/mL) in series [2].
